Values of other authors as cited in US20250195352A1, “LIPID FORMULATIONS CONTAINING BIOACTIVE FATTY ACIDS AND OTHER BIOACTIVE AGENTS” (Sciadonics, Inc., priority 2022, published 2025).

Experiments:
[1] = system: cultured human skin keratinocytes; details: purified SA taken up by cultured human skin keratinocytes; Berger 2002
[2] = system: PPAR receptors; details: unmetabolized SA; Berger 2002

binding to PPAR receptors [2]: does not bind
Structure (SMILES): CCCCCC=CCC=CCCCCC=CCCCC(=O)O [SA, 5,11,14-eicosatrienoic acid]
ARA levels [1]: reduced
prostaglandin E2 (PGE2) levels [1]: reduced
